Data from patent US9951028B2, “Agricultural chemicals” (REDAG CROP PROTECTION LTD, priority 2013, dated 2018).

Legend:
Assay type in all cases: in vivo
[1] = tested on: Amaranthus retroflexus (redroot pigweed); experiment: Herbicidal efficacy screen, corrected necrosis
Protocol: (§1) Plants were obtained as seeds and were grown to the 2-4 true leaf stage. Plants were grown under laboratory conditions, individually in seed trays. Each plant (in an approximately 3 cm diameter plug) was then detached from the tray for spraying. The compounds were screened at a range of five concentrations, diluted in acetone and Tween™. A carrier only control was also conducted. Treatments were applied directly onto the plants, using a potter tower, at a specified application rate. One plant of each species was sprayed using a potter tower. The 3 different types of plants were placed on a 10 cm diameter platform directly beneath the potter sprayer and sprayed simultaneously. The growth of the plants and any Phytotoxicity effects were then assessed at intervals over 21 days, according to EPPO guideline PP1/135. In the tables below C represents a percentage increase in necrosis relative to the control of 0.1-50; B represents a percentage inhibition of 50-80; and A represents a percentage inhibition of 80-100. Certain compounds of the invention were screened for herbicidal efficacy against target plants: Amaranthus retroflexus (redroot pigweed), Abutilon theophrasti (China Jute): Capsella bursa-pastoris, (shepherd's-purse) Echinochloa crus-galli, Hordeum vulgare (Barley),

[2] = tested on: Abutilon theophrasti (China Jute); experiment: Herbicidal efficacy screen, corrected necrosis
Protocol: as §1

[3] = tested on: Capsella bursa-pastoris, (shepherd's-purse); experiment: Herbicidal efficacy screen, corrected necrosis
Protocol: as §1

[4] = tested on: garden cress, Lepidium sativum; experiment: Herbicidal efficacy screen, potter tower spray, necrosis assessed
Protocol: (§2) Compounds 22, 23 and 24 were screened for herbicidal efficacy against target plants: garden cress, Lepidium sativum, common chickweed, Stellaria media, and white mustard […] alba Plants were obtained as seeds and were grown to the 2-4 true leaf stage. Plants were grown under laboratory conditions, individually in seed trays. Each plant (in an approximately 3 cm diameter plug) was then detached from the tray for spraying. The compounds were screened at a range of five concentrations, diluted in acetone and TweenTM. A carrier only control was also conducted. Treatments were applied directly onto the plants, using a potter tower, at a specified application rate. One plant of each species was sprayed using a potter tower. The 3 different types of plants were placed on a 10 cm diameter platform directly beneath the potter sprayer and sprayed simultaneously. The growth of the plants and any Phytotoxicity effects were then assessed at intervals over 21 days, according to EPPO guideline PP1/135. Five replicas were performed for each treatment, for each species. In the tables below C represents a percentage increase in necrosis relative to the control of 0.1-50; B represents a percentage inhibition of 50-80; and A represents a percentage inhibition of 80-100.

[5] = tested on: common chickweed, Stellaria media; experiment: as above; settings: 12.5 g/ha
Protocol: as §2

[6] = 6.25 g/ha, day 1 post application
[7] = 6.25 g/ha, day 7 post application
[8] = 12.5 g/ha, day 1 post application
[9] = 12.5 g/ha, day 7 post application
[10] = 25 g/ha, day 1 post application
[11] = 25 g/ha, day 7 post application
[12] = 50 g/ha, day 1 post application
[13] = 50 g/ha, day 7 post application
[14] = 100 g/ha, day 1 post application
[15] = 100 g/ha, day 7 post application

Compound: CC(C)N(C)S(=O)(=O)/N=C/c1cc(-n2c(=O)cc(C(F)(F)F)n(C)c2=O)c(F)cc1Cl [Compound 22, 1-[4-Chloro-2-fluoro-5-[(E)-(isopropyl(methyl)sulfamoyl)iminomethyl]phenyl]-3-methyl-2,6-dioxo-4-(trifluoromethyl)pyrimidine]
- Average of corrected necrosis [1, 6]: C (C represents a percentage increase in necrosis relative to the control of 0.1-50)
- Average of corrected necrosis [1, 7]: A (A represents a percentage inhibition of 80-100)
- Average of corrected necrosis [1, 8]: C (C represents a percentage increase in necrosis relative to the control of 0.1-50)
- Average of corrected necrosis [1, 9]: A (A represents a percentage inhibition of 80-100)
- Average of corrected necrosis [1, 10]: C (C represents a percentage increase in necrosis relative to the control of 0.1-50)
- Average of corrected necrosis [1, 11]: A (A represents a percentage inhibition of 80-100)
- Average of corrected necrosis [1, 12]: C (C represents a percentage increase in necrosis relative to the control of 0.1-50)
- Average of corrected necrosis [1, 13]: A (A represents a percentage inhibition of 80-100)
- Average of corrected necrosis [1, 14]: C (C represents a percentage increase in necrosis relative to the control of 0.1-50)
- Average of corrected necrosis [1, 15]: A (A represents a percentage inhibition of 80-100)
- Average of corrected necrosis [2, 6]: C (C represents a percentage increase in necrosis relative to the control of 0.1-50)
- Average of corrected necrosis [2, 7]: A (A represents a percentage inhibition of 80-100)
- Average of corrected necrosis [2, 8]: C (C represents a percentage increase in necrosis relative to the control of 0.1-50)
- Average of corrected necrosis [2, 9]: A (A represents a percentage inhibition of 80-100)
- Average of corrected necrosis [2, 10]: C (C represents a percentage increase in necrosis relative to the control of 0.1-50)
- Average of corrected necrosis [2, 11]: A (A represents a percentage inhibition of 80-100)
- Average of corrected necrosis [2, 12]: C (C represents a percentage increase in necrosis relative to the control of 0.1-50)
- Average of corrected necrosis [2, 13]: A (A represents a percentage inhibition of 80-100)
- Average of corrected necrosis [2, 14]: C (C represents a percentage increase in necrosis relative to the control of 0.1-50)
- Average of corrected necrosis [2, 15]: A (A represents a percentage inhibition of 80-100)
- Average of corrected necrosis [3, 6]: 0%
- Average of corrected necrosis [3, 7]: A (A represents a percentage inhibition of 80-100)
- Average of corrected necrosis [3, 8]: C (C represents a percentage increase in necrosis relative to the control of 0.1-50)
- Average of corrected necrosis [3, 9]: A (A represents a percentage inhibition of 80-100)
- Average of corrected necrosis [3, 10]: C (C represents a percentage increase in necrosis relative to the control of 0.1-50)
- Average of corrected necrosis [3, 11]: A (A represents a percentage inhibition of 80-100)
- Average of corrected necrosis [3, 12]: 0%
- Average of corrected necrosis [3, 13]: A (A represents a percentage inhibition of 80-100)
- Average of corrected necrosis [3, 14]: C (C represents a percentage increase in necrosis relative to the control of 0.1-50)
- Average of corrected necrosis [3, 15]: A (A represents a percentage inhibition of 80-100)
- Average of necrosis [4, 8]: C (C represents a percentage increase in necrosis relative to the control of 0.1-50)
- Average of necrosis ([4]; 12.5 g/ha, day 2 post application): C (C represents a percentage increase in necrosis relative to the control of 0.1-50)
- Average of necrosis ([4]; 12.5 g/ha, day 3 post application): C (C represents a percentage increase in necrosis relative to the control of 0.1-50)
- Average of necrosis ([4]; 12.5 g/ha, day 4 post application): C (C represents a percentage increase in necrosis relative to the control of 0.1-50)
- Average of necrosis ([4]; 12.5 g/ha, day 5 post application): C (C represents a percentage increase in necrosis relative to the control of 0.1-50)
- Average of necrosis [4, 9]: C (C represents a percentage increase in necrosis relative to the control of 0.1-50)
- Average of necrosis ([4]; 12.5 g/ha, day 10 post application): B (B represents a percentage inhibition of 50-80)
- Average of necrosis [4, 10]: C (C represents a percentage increase in necrosis relative to the control of 0.1-50)
- Average of necrosis ([4]; 25 g/ha, day 2 post application): C (C represents a percentage increase in necrosis relative to the control of 0.1-50)
- Average of necrosis ([4]; 25 g/ha, day 3 post application): C (C represents a percentage increase in necrosis relative to the control of 0.1-50)
- Average of necrosis ([4]; 25 g/ha, day 4 post application): C (C represents a percentage increase in necrosis relative to the control of 0.1-50)
- Average of necrosis ([4]; 25 g/ha, day 5 post application): C (C represents a percentage increase in necrosis relative to the control of 0.1-50)
- Average of necrosis [4, 11]: C (C represents a percentage increase in necrosis relative to the control of 0.1-50)
- Average of necrosis ([4]; 25 g/ha, day 10 post application): A (A represents a percentage inhibition of 80-100)
- Average of necrosis [4, 12]: C (C represents a percentage increase in necrosis relative to the control of 0.1-50)
- Average of necrosis ([4]; 50 g/ha, day 2 post application): C (C represents a percentage increase in necrosis relative to the control of 0.1-50)
- Average of necrosis ([4]; 50 g/ha, day 3 post application): C (C represents a percentage increase in necrosis relative to the control of 0.1-50)
- Average of necrosis ([4]; 50 g/ha, day 4 post application): C (C represents a percentage increase in necrosis relative to the control of 0.1-50)
- Average of necrosis ([4]; 50 g/ha, day 5 post application): B (B represents a percentage inhibition of 50-80)
- Average of necrosis [4, 13]: B (B represents a percentage inhibition of 50-80)
- Average of necrosis ([4]; 50 g/ha, day 10 post application): B (B represents a percentage inhibition of 50-80)
- Average of necrosis [4, 14]: C (C represents a percentage increase in necrosis relative to the control of 0.1-50)
- Average of necrosis ([4]; 100 g/ha, day 2 post application): C (C represents a percentage increase in necrosis relative to the control of 0.1-50)
- Average of necrosis ([4]; 100 g/ha, day 3 post application): C (C represents a percentage increase in necrosis relative to the control of 0.1-50)
- Average of necrosis ([4]; 100 g/ha, day 4 post application): C (C represents a percentage increase in necrosis relative to the control of 0.1-50)
- Average of necrosis ([4]; 100 g/ha, day 5 post application): B (B represents a percentage inhibition of 50-80)
- Average of necrosis [4, 15]: B (B represents a percentage inhibition of 50-80)
- Average of necrosis ([4]; 100 g/ha, day 10 post application): B (B represents a percentage inhibition of 50-80)
- Average of necrosis ([4]; 200 g/ha, day 1 post application): C (C represents a percentage increase in necrosis relative to the control of 0.1-50)
- Average of necrosis ([4]; 200 g/ha, day 2 post application): C (C represents a percentage increase in necrosis relative to the control of 0.1-50)
- Average of necrosis ([4]; 200 g/ha, day 3 post application): C (C represents a percentage increase in necrosis relative to the control of 0.1-50)
- Average of necrosis ([4]; 200 g/ha, day 4 post application): C (C represents a percentage increase in necrosis relative to the control of 0.1-50)
- Average of necrosis ([4]; 200 g/ha, day 5 post application): B (B represents a percentage inhibition of 50-80)
- Average of necrosis ([4]; 200 g/ha, day 7 post application): B (B represents a percentage inhibition of 50-80)
- Average of necrosis ([4]; 200 g/ha, day 10 post application): A (A represents a percentage inhibition of 80-100)
- Average of necrosis ([5]; day 1 post application): C (C represents a percentage increase in necrosis relative to the control of 0.1-50)
- Average of necrosis ([5]; day 2 post application): C (C represents a percentage increase in necrosis relative to the control of 0.1-50)
